Experimental data taken from ChEMBL document CHEMBL5365511, “Novel Compounds as TEAD Inhibitors for Treating Cancer” (ACS Med Chem Lett, 2023).

How the values were obtained:
[1] = target: Transcriptional enhancer factor TEF-5 (Homo sapiens, UniProt Q99594); assay: Displacement of biotinylated lipid pocket probes from His-tagged TEAD3 (unknown origin) preincubated for 4 hrs followed by lipid pocket probe addition and measured after 60 mins by TR-FRET assay
[2] = target: Transcriptional enhancer factor TEF-4 (Homo sapiens, UniProt Q15562); assay: Displacement of biotinylated lipid pocket probes from His-tagged TEAD2 (unknown origin) preincubated for 4 hrs followed by lipid pocket probe addition and measured after 60 mins by TR-FRET assay
[3] = target: Transcriptional enhancer factor TEF-1 (Homo sapiens, UniProt P28347); assay: Displacement of biotinylated lipid pocket probes from His-tagged TEAD1 (unknown origin) preincubated for 4 hrs followed by lipid pocket probe addition and measured after 60 mins by TR-FRET assay
[4] = target: Transcriptional enhancer factor TEF-3 (Homo sapiens, UniProt Q15561); assay: Displacement of biotinylated lipid pocket probes from His-tagged TEAD4 (unknown origin) preincubated for 4 hrs followed by lipid pocket probe addition and measured after 60 mins by TR-FRET assay
Transcriptional enhancer factor TEF-3, sequence (Q15561 whole entry): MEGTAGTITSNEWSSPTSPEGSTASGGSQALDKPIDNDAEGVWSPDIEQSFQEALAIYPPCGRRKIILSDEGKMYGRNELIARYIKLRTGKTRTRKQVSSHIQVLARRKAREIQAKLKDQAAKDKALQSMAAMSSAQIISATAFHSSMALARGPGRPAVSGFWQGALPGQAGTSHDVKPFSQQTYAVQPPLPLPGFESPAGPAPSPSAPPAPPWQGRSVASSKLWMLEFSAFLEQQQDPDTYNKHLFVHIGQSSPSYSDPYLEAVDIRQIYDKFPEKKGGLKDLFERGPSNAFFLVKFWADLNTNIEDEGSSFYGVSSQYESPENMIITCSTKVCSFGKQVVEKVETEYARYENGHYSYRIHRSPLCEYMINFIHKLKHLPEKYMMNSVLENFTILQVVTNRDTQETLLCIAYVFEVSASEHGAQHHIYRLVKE

Transcriptional enhancer factor TEF-4, sequence (Q15562 whole entry): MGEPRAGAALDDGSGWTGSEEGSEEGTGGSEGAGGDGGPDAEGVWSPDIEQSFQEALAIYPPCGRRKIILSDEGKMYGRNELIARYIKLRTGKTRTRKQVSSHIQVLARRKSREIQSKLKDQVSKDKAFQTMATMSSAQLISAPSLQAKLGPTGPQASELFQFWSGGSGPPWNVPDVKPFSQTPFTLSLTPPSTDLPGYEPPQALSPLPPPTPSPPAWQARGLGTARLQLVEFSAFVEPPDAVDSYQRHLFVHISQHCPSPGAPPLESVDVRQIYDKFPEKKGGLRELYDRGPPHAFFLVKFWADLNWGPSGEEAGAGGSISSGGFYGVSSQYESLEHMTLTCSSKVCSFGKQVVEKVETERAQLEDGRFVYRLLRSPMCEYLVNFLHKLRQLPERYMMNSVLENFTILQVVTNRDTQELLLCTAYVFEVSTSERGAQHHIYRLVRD
Transcriptional enhancer factor TEF-1, sequence (P28347 whole entry): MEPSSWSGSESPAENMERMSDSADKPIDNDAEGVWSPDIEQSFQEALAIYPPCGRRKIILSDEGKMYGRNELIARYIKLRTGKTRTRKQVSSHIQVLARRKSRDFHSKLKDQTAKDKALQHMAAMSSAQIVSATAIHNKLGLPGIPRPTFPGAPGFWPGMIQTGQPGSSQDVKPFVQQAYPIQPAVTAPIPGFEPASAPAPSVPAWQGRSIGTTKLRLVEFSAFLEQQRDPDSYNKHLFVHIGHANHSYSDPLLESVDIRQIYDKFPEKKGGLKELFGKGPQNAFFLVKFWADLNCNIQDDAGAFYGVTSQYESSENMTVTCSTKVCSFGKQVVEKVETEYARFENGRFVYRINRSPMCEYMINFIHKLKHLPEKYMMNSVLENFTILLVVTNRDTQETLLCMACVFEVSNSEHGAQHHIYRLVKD
Transcriptional enhancer factor TEF-5, sequence (Q99594 whole entry): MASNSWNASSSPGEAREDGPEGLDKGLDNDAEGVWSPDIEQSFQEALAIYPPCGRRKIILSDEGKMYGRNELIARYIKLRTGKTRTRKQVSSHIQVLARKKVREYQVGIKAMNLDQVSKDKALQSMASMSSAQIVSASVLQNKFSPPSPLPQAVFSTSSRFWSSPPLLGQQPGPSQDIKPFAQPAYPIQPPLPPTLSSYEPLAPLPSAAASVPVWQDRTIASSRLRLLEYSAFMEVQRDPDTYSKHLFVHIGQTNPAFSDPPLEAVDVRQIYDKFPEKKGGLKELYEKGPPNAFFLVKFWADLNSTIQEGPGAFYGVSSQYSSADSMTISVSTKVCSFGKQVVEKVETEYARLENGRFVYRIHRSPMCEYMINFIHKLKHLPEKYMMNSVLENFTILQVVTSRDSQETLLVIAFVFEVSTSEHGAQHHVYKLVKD

| IC50 [1] | IC50 [2] | IC50 [3] | IC50 [4] | SMILES |
| --- | --- | --- | --- | --- |
| 7 nM | 6 nM | 4 nM | 3 nM | C=CC(=O)N(C)Cc1cc(-c2ccc(OC(F)(F)F)cc2)c2c(c1CO)CCO2 |
| 3 nM | 4 nM | 3 nM | 2 nM | C=CC(=O)N1CC(c2nc(-c3ccc(OC(F)(F)F)cc3)c3ncsc3n2)C1 |
|  |  | 6 nM | 3 nM | C=CC(=O)NCc1cc(-c2ccc(OC(F)(F)F)cc2)c2ncn(C)c2c1C#CCO |
|  | 4 nM |  | 2 nM | Cn1cnc2c(-c3ccc(OC(F)(F)F)cc3)nc(C3CN(C(=O)C4=CCC4)C3)nc21 |
